Data as given in the supplement of paper PMC11451515.

Legend:
Assay in all cases: AUC of viability dose-response curve (% viability x log10 dose units); higher = less sensitive
Details in all cases: 48 h
P12-Ichikawa = tested on: P12-Ichikawa
Method in brief: (§1)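 Over 48 h at 37°C, leukemia cells in 1536-well plates (500 or 1000 cells/well), adapted to each medium, received library compounds in DMSO at 11 threefold doses from 47 μM to 0.79 nM. CellTiter-Glo One luminescence, normalised per plate to DMSO and cell-free wells, was fitted by a four-parameter log-logistic function of log10 dose. The area under the curve was then integrated by trapezoidal rule, after scaling curves above full viability and removing those that failed quality control.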

NOMO1 = tested on: NOMO1
Method in brief: as §1

SEM cells = tested on: SEM cells
Method in brief: as §1

[1] = RPMI 5 mM glucose + 10% dialyzed FBS

Row | SMILES | AUC of viability dose-response curve (P12-Ichikawa; HPLM + 10% dialyzed FBS) | AUC of viability dose-response curve (P12-Ichikawa; RPMI 5 mM glucose + 10% FBS) | AUC of viability dose-response curve (P12-Ichikawa; [1]) | AUC of viability dose-response curve (NOMO1; HPLM + 10% dialyzed FBS) | AUC of viability dose-response curve (NOMO1; RPMI 5 mM glucose + 10% FBS) | AUC of viability dose-response curve (NOMO1; [1]) | AUC of viability dose-response curve (SEM cells; HPLM + 10% dialyzed FBS) | AUC of viability dose-response curve (SEM cells; RPMI 5 mM glucose + 10% FBS) | AUC of viability dose-response curve (SEM cells; [1])
1 | CNc1nc(Nc2cnn([C@H]3CCN(C4COC4)C[C@@H]3F)c2Cl)ncc1C(F)(F)F | 368 | 400 | 397 | 316 | 360 | 391 | 388 | 276 | 363
2 | COC(=O)c1ccc2c(c1)NC(=O)/C2=C(\Nc1ccc(N(C)C(=O)CN2CCN(C)CC2)cc1)c1ccccc1 | 458 | 462 | 451 | 453 | 459 | 441 |  |  | 
3 | CC[C@H]1OC(=O)[C@H](C)C(=O)[C@H](C)[C@@H](O[C@H]2O[C@H](C)C[C@H](N(C)C)[C@H]2O)[C@](C)(OC)C[C@@H](C)C(=O)[C@H](C)[C@H]2N(CCCCn3cnc(-c4cccnc4)c3)C(=O)O[C@]12C | 452 | 444 | 395 | 439 | 447 | 459 | 447 | 462 | 453
4 | C[C@@H](CN1CC(=O)NC(=O)C1)N1CC(=O)NC(=O)C1 | 278 | 317 | 303 | 273 | 296 | 301 | 233 | 206 | 198
5 | COc1cccc2c1C(=O)c1c(O)c3c(c(O)c1C2=O)C[C@@](O)(C(=O)CO)C[C@@H]3O[C@H]1C[C@H](N)[C@H](O)[C@H](C)O1 | 338 | 326 | 346 | 367 | 369 | 374 | 286 | 268 | 271
6 | Nc1ncnc2c1ncn2[C@@H]1O[C@H](CO)C[C@H]1O | 442 | 439 | 430 | 439 | 420 | 445 | 426 | 445 | 416
7 | CN1\C=N/C2=CC=C(NC3=CC(=CC=C3C)NC(=O)C4=CC(=CC=C4)C(C)(C)C#N)C=C2C1=O | 421 | 395 | 422 | 376 | 377 | 355 | 424 | 431 | 433
8 | COc1ccc(C(=O)c2c(C)n(CCN3CCOCC3)c3cc(I)ccc23)cc1 | 381 | 381 | 409 | 354 | 344 | 357 | 461 | 461 | 458
9 | CCOC(=O)\C1=C\[C@]2(CC)CCCN3CCC4=C([C@H]23)[N]1C5=C4C=CC=C5 | 469 | 470 | 468 | 464 | 464 | 466 | 464 | 469 | 476
10 | O=P(O)(O)C(O)(Cn1ccnc1)P(=O)(O)O | 448 | 445 | 450 | 471 | 474 | 477 | 427 | 425 | 424
11 | CNCC[C@H](Oc1cccc2ccccc12)c1cccs1 | 453 | 466 | 459 | 411 | 429 | 430 | 437 | 437 | 412
12 | Cc1ccccc1C(=O)Nc1ccc(C(=O)N2CCCC(O)c3cc(Cl)ccc32)c(C)c1 (stereo not drawn) | 461 | 462 | 469 | 452 | 471 | 471 | 460 | 455 | 446
13 | NC[C@H]1O[C@H](O[C@@H]2[C@H](O)[C@@H](O[C@H]3O[C@H](CO)[C@@H](O)[C@H](N)[C@H]3O)[C@H](N)C[C@@H]2N)[C@H](O)[C@@H](O)[C@@H]1O | 445 | 466 | 461 | 455 | 452 | 458 |  |  | 
14 | Nc1c2c(nc3ccccc13)CCCC2 | 434 | 440 | 433 | 352 | 376 | 388 | 431 | 390 | 402
15 | CC(C)(O)CC(=O)NCCn1ccc2ncnc(Nc3ccc(Oc4cccc(C(F)(F)F)c4)c(Cl)c3)c21 | 425 | 437 | 436 | 415 | 450 | 433 | 436 | 415 | 432
16 | OCC(O)C(O)C(O)CO (stereo not drawn) | 455 | 432 | 429 | 430 | 414 | 447 | 421 | 429 | 402
17 | Cc1coc2c1C(=O)C(=O)c1c-2ccc2c1CCCC2(C)C | 450 | 444 | 438 | 437 | 455 | 450 | 439 | 432 | 421
18 | CCOC(=O)C(C)OC1=CC=CC2=C1\C=C/N(CC(=O)NC3=CC=C4OCCOC4=C3)C2=O (stereo not drawn) | 442 | 452 | 436 | 441 | 434 | 442 | 453 | 441 | 443
19 | COc1ccc2c(c1)CN(C)CC2c1ccc(Cl)c(Cl)c1 (stereo not drawn) | 475 | 471 | 461 | 430 | 463 | 437 | 465 | 467 | 443
20 | N[C@@H]1CONC1=O | 468 | 474 | 465 | 474 | 441 | 464 | 418 | 443 | 431
21 | C=C[C@H]1CN2CCC1C[C@@H]2C(O)c1ccnc2ccc(OC)cc12 (stereo partly drawn) | 473 | 470 | 467 | 462 | 467 | 463 |  |  | 
22 | CCCCCNC(=O)N1CCC(CN(Cc2ccc(Cl)cc2)Cc2ccc([N+](=O)[O-])s2)C1 (stereo not drawn) | 443 | 446 | 445 |  |  |  | 461 | 447 | 456
23 | CN1CCCN(CC1)C2=CC=C3C(=O)\C(=C/4SC5=C(C=CC=C5)N4C3=N2)C(=O)NCC6=CN=C(C)C=N6 | 447 | 410 | 420 | 442 | 468 | 450 | 417 | 335 | 374
24 | COc1ccc(C(=O)CC2(O)C(=O)Nc3c(Cl)ccc(Cl)c32)cc1 (stereo not drawn) | 388 | 387 | 406 | 408 | 416 | 418 | 391 | 330 | 388

Row | SMILES | AUC of viability dose-response curve (P12-Ichikawa; HPLM + 10% dialyzed FBS) | AUC of viability dose-response curve (P12-Ichikawa; RPMI 5 mM glucose + 10% FBS) | AUC of viability dose-response curve (P12-Ichikawa; [1]) | AUC of viability dose-response curve (NOMO1; HPLM + 10% dialyzed FBS) | AUC of viability dose-response curve (NOMO1; RPMI 5 mM glucose + 10% FBS) | AUC of viability dose-response curve (NOMO1; [1]) | AUC of viability dose-response curve (SEM cells; HPLM + 10% dialyzed FBS) | AUC of viability dose-response curve (SEM cells; RPMI 5 mM glucose + 10% FBS) | AUC of viability dose-response curve (SEM cells; [1])
25 | O=C(c1ccccc1)c1ccc2n1CCC2C(=O)O (stereo not drawn) | 423 | 413 | 424 | 461 | 458 | 464 | 439 | 421 | 426
26 | Cc1csc(-c2nnc(Nc3ccc(Oc4ncccc4-c4ccnc(N)n4)cc3)c3ccccc23)c1 | 178 | 191 | 226 | 408 | 334 | 357 | 258 | 211 | 226
27 | CC1=CC(=CC(=C1C\C2=N\CCN2)C)C(C)(C)C | 473 | 458 | 463 | 395 | 420 | 407 | 443 | 471 | 460
28 | CC(=O)Oc1ccccc1C(=O)Nc1ncc([N+](=O)[O-])s1 | 457 | 446 | 442 | 459 | 464 | 420 | 441 | 454 | 470
29 | COC(=O)C\1=C(C)\N\C(=C(/C1C2=CC=CC3=NON=C23)C(=O)OC(C)C)C (stereo not drawn) | 455 | 454 | 438 | 437 | 441 | 464 | 468 | 449 | 457
30 | CNC(=O)c1ccc(Nc2cc(Nc3ccccc3[S+](=O)([O-])C(C)C)c3cc[nH]c3n2)nc1 | 367 | 355 | 377 | 422 | 407 | 414 | 319 | 345 | 323
31 | CC(C(=O)O)c1ccc2c(c1)CC(=O)c1ccccc1S2 (stereo not drawn) | 427 | 418 | 425 | 389 | 418 | 415 | 440 | 461 | 458
32 | O=C(O)c1cc(/N=N/c2ccc([S+](=O)([O-])Nc3ccccn3)cc2)ccc1O | 465 | 468 | 474 | 471 | 466 | 470 | 452 | 465 | 453
33 | COc1c(C)c2c(c(O)c1C/C=C(\C)CCC(=O)O)C(=O)OC2 | 426 | 392 | 404 | 421 | 425 | 428 | 436 | 414 | 445
34 | CC(C)c1cc(C(C)C)c(CC(=O)N[S+](=O)([O-])Oc2c(C(C)C)cccc2C(C)C)c(C(C)C)c1 | 469 | 469 | 451 | 445 | 439 | 426 | 471 | 467 | 464
35 | COC1=CC=C(C(=C1)OC(C)C)C/2=N/[C@@H]([C@@H](N2C(=O)N3CCNC(=O)C3)C4=CC=C(Cl)C=C4)C5=CC=C(Cl)C=C5 | 404 | 427 | 413 | 409 | 439 | 434 | 279 | 250 | 253
36 | COc1ccc2c(c1)[C@]13CCCCC1C(C2)N(C)CC3 (stereo partly drawn) | 467 | 474 | 457 | 468 | 466 | 469 | 435 | 443 | 467
37 | COC1=C(OCCCN2CCOCC2)C=CC\3=C1/N=C(/NC(=O)C4=CN=C(N)N=C4)N5CC/N=C35 | 385 | 344 | 364 |  |  |  | 369 | 360 | 358
38 | COc1cc(C(=O)N2CC[C@@H](O)[C@@H](N)C2)cc2nc(-c3cc4ccccc4n3CC3CC3)n(C)c12 | 279 | 336 | 324 | 294 | 327 | 338 | 357 | 276 | 335
39 | Cc1ccnc2c1NC(=O)c1cccnc1N2C1CC1 | 474 | 464 | 473 | 405 | 424 | 436 | 457 | 439 | 444
40 | NC(=O)c1ccc(N(C(N)=O)c2c(F)cccc2F)nc1-c1ccc(F)cc1F | 476 | 468 | 449 | 472 | 447 | 429 | 412 | 454 | 411
41 | CC12CC3CC(C)(C1)CC(N)(C3)C2 | 450 | 464 | 467 | 446 | 457 | 461 | 440 | 419 | 459
42 | C[C@]12CC[C@H]3[C@@H](CCC4=CC(=O)CC[C@@H]43)[C@@H]1CC[C@@H]2OC(=O)CCc1ccccc1 | 469 | 474 | 470 | 463 | 469 | 466 | 415 | 416 | 443
43 | CCCCCCCCCCCCCC(=O)N[C@H](CO)[C@H](O)c1ccc([N+](=O)[O-])cc1 | 369 | 328 | 318 | 342 | 323 | 327 | 296 | 276 | 280
44 | COc1cc2c(cc1OC)CN(CCc1ccc(NC(=O)c3cc(OC)c(OC)cc3NC(=O)c3cnc4ccccc4c3)cc1)CC2 | 412 | 401 | 402 | 459 | 458 | 464 | 445 | 418 | 432
45 | O=C(CCCN1CCN(c2ccc(F)cc2)CC1)NC1c2ccccc2CSc2ccccc21 (stereo not drawn) | 455 | 434 | 434 | 427 | 440 | 438 | 429 | 388 | 402
46 | CN(C)CC(C)(C)CNc1nn2c(-c3ccccc3)nnc2cc1C1CCC1 | 411 | 405 | 433 | 416 | 447 | 459 |  |  | 
47 | C=CC(=O)Nc1cc2c(Nc3ccc(F)c(Cl)c3)ncnc2cc1OCCCN1CCOCC1 | 421 | 441 | 442 | 421 | 429 | 438 |  |  | 
48 | CCc1ccc(/C=C2/SC(=S)NC2=O)cc1 | 400 | 386 | 377 | 377 | 387 | 375 |  |  | 
